SMILES strings stand for the structures.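 These data come from cells grown in 96-well plates and exposed to compound for 48 hours at five concentrations. Abbreviation: GI50, concentration required for 50% inhibition of growth. TGI denotes the concentration required for complete inhibition of growth.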

The record followed here is PubChem BioAssay (NCI).

Some test systems named below: MDA-MB-231 breast; NCI-H522 lung; OVCAR-4 ovarian; CAKI-1 renal; HCT-116 colon; K-562 leukemia; IGROV1 ovarian; A549 NSCLC.
What all share (assay): NCI tumour cell line growth inhibition, 48 h

For `C=C1C(=O)OC(CCCCCCCC)C1C(=O)O` (stereo unspecified), the GI50 with MDA-MB-231 breast is 17.7 µM; in the assay with NCI-H522 lung, 7.57 µM; in the assay with OVCAR-4 ovarian it was 15.3 µM; in the assay with CAKI-1 renal, 16 µM; in the assay on HCT-116 colon, 11.9 µM; with K-562 leukemia, 27.9 µM. Also, the GI50 was 21.8 µM in the assay with IGROV1 ovarian and 23.6 µM with A549 NSCLC. Besides, the TGI with MDA-MB-231 breast is 33.2 µM; in the assay on NCI-H522 lung, 20.1 µM; with OVCAR-4 ovarian, 31.8 µM; in the assay with CAKI-1 renal it was 34.9 µM; in the assay with HCT-116 colon, 26.2 µM; in the assay with K-562 leukemia it was above 75.8 µM. The TGI was 48.3 µM with IGROV1 ovarian and above 67.6 µM in the assay on A549 NSCLC.

Turning to `CC/C=C/[C@@H]1C=C[C@@H]2CCC[C@H]2[C@@H]1CC[C@H](O)[C@H](C)N`, the GI50 in the assay on MDA-MB-231 breast is 1.78 µM; in the assay with NCI-H522 lung, 1.82 µM; in the assay on OVCAR-4 ovarian it was 1.83 µM; in the assay with CAKI-1 renal it was 3.73 µM; in the assay with HCT-116 colon it was 1.53 µM; in the assay with K-562 leukemia, 1.38 µM. In addition, the figures for the GI50 in the assay on IGROV1 ovarian and in the assay on A549 NSCLC were 1.5 µM and 2.26 µM, respectively. The TGI is 3.22 µM with MDA-MB-231 breast; 3.99 µM with NCI-H522 lung; 4.88 µM with OVCAR-4 ovarian; 20.5 µM in the assay on CAKI-1 renal; 2.86 µM in the assay with HCT-116 colon; 2.67 µM in the assay on K-562 leukemia. The values for the TGI with IGROV1 ovarian and in the assay with A549 NSCLC were 2.92 µM and 7.05 µM, respectively.

Take `O=C1CCCC1C(=O)Nc1ccc2ccccc2c1` (stereo unspecified): the TGI in the assay with MDA-MB-231 breast, in the assay on NCI-H522 lung, in the assay with OVCAR-4 ovarian, in the assay with CAKI-1 renal, in the assay with HCT-116 colon and in the assay on K-562 leukemia was above 100 µM in each case. For the same compound, the TGI in the assay on IGROV1 ovarian and in the assay with A549 NSCLC was above 100 µM in each case.

On to `CN(NC(=O)/C(=C/c1ccc(O)cc1)NC(=O)c1ccccc1)c1ccnc2cc(Cl)ccc12`, for which the TGI with MDA-MB-231 breast came to 40.4 µM; with NCI-H522 lung it was 60.7 µM; in the assay on OVCAR-4 ovarian, 33.6 µM; with CAKI-1 renal, 33.8 µM; in the assay on HCT-116 colon, 38.2 µM; in the assay on K-562 leukemia, 30.5 µM. For the same compound, the results for the TGI with IGROV1 ovarian and in the assay on A549 NSCLC were 34.1 µM and 38.4 µM, respectively.

As to `N/C(=N\N=C\c1ccc2c(c1)OCO2)NO`, the TGI is above 100 µM in the assay with MDA-MB-231 breast; above 100 µM in the assay with NCI-H522 lung; above 100 µM in the assay on OVCAR-4 ovarian; above 100 µM with CAKI-1 renal; 59.8 µM in the assay on HCT-116 colon; 50.7 µM with K-562 leukemia. The TGI was 88.3 µM in the assay with IGROV1 ovarian and above 100 µM in the assay with A549 NSCLC.

In the case of `Cc1nc2c(cnn2-c2ccnc3c(C(F)(F)F)cccc23)c(=O)o1`, the GI50 in the assay with MDA-MB-231 breast, in the assay on NCI-H522 lung, in the assay on OVCAR-4 ovarian, in the assay on CAKI-1 renal, in the assay with HCT-116 colon and in the assay with K-562 leukemia was above 100 µM in each case. Besides, the GI50 in the assay on IGROV1 ovarian and with A549 NSCLC was above 100 µM each time. In addition, the TGI in the assay with MDA-MB-231 breast, in the assay on NCI-H522 lung, in the assay on OVCAR-4 ovarian, in the assay on CAKI-1 renal, in the assay on HCT-116 colon and with K-562 leukemia was above 100 µM throughout. In addition, the TGI in the assay with IGROV1 ovarian and in the assay on A549 NSCLC was above 100 µM throughout.

Take `Clc1ccc(Cl)c(N/N=C\c2c[nH]c3ccccc23)c1`: the GI50 is 2.05 µM with MDA-MB-231 breast; 1.78 µM in the assay on NCI-H522 lung; 10.7 µM with OVCAR-4 ovarian; 5.43 µM in the assay with CAKI-1 renal; 14.8 µM with HCT-116 colon; 1.83 µM in the assay with K-562 leukemia. For the same compound, the GI50 with IGROV1 ovarian was 0.0611 µM; with A549 NSCLC, 14.1 µM. Also, the TGI was found to be 8.07 µM in the assay on MDA-MB-231 breast; 14.8 µM with NCI-H522 lung; 23 µM with OVCAR-4 ovarian; 19.6 µM with CAKI-1 renal; 27.9 µM with HCT-116 colon; 17.7 µM with K-562 leukemia. The results for the TGI with IGROV1 ovarian and in the assay with A549 NSCLC were 0.623 µM and 29.4 µM, respectively.

With `COc1ccc(C(=O)CC2(O)C(=O)Nc3c(Cl)ccc(Cl)c32)cc1` (stereo unspecified), the GI50 in the assay with MDA-MB-231 breast was 4.27 µM; in the assay on NCI-H522 lung, 0.406 µM; in the assay on OVCAR-4 ovarian it was 11.9 µM; in the assay with CAKI-1 renal, 1.75 µM; in the assay with HCT-116 colon it was 0.72 µM; in the assay on K-562 leukemia, 0.403 µM. Moreover, the figures for the GI50 in the assay on IGROV1 ovarian and in the assay on A549 NSCLC were 4.95 µM and 1.55 µM, respectively. The TGI in the assay on MDA-MB-231 breast was above 92.4 µM; with NCI-H522 lung, 3.58 µM; in the assay with OVCAR-4 ovarian, above 100 µM; with CAKI-1 renal, above 100 µM; in the assay with HCT-116 colon, 23.9 µM; with K-562 leukemia, above 100 µM. The TGI with IGROV1 ovarian and in the assay with A549 NSCLC was above 100 µM each time.

As for `Nc1nc2nc3c(nc2c(=O)[nH]1)CN(c1ccc(C(=O)O)cc1)C3=O`, the TGI in the assay on MDA-MB-231 breast, in the assay with NCI-H522 lung, with OVCAR-4 ovarian, in the assay with CAKI-1 renal, in the assay on HCT-116 colon and with K-562 leukemia was above 100 µM in each case. The TGI in the assay with IGROV1 ovarian and with A549 NSCLC was above 100 µM throughout.

For `CC[C@]1(O)C[C@@H]2CN(Cc3c([nH]c4ccccc34)[C@@](C(=O)OC)(c3cc4c(cc3OC)N(C)[C@H]3[C@@](O)(C(=O)OC)[C@H](OC(C)=O)[C@]5(CC)[C@@H]6C[C@@H]6CN6CC[C@]43[C@@H]65)C2)C1`, the GI50 is 0.0761 µM with MDA-MB-231 breast; 0.0105 µM in the assay on NCI-H522 lung; 0.666 µM with OVCAR-4 ovarian; above 4.38 µM with CAKI-1 renal; 0.0351 µM with HCT-116 colon; 0.0279 µM in the assay with K-562 leukemia. The values for the GI50 in the assay on IGROV1 ovarian and in the assay with A549 NSCLC were 0.452 µM and 0.234 µM, respectively. Moreover, the TGI was above 2.61 µM with MDA-MB-231 breast; 0.0947 µM in the assay on NCI-H522 lung; above 4.38 µM in the assay on OVCAR-4 ovarian; above 4.38 µM in the assay on CAKI-1 renal; above 4.38 µM in the assay on HCT-116 colon; above 4.38 µM in the assay with K-562 leukemia. Moreover, the TGI in the assay with IGROV1 ovarian and in the assay on A549 NSCLC was above 4.38 µM in each case.

On to `[O-][n+]1onc2c3nn(-c4ccccc4)nc3ccc21`, for which the TGI in the assay with MDA-MB-231 breast, in the assay on NCI-H522 lung, with OVCAR-4 ovarian, in the assay on CAKI-1 renal, with HCT-116 colon and in the assay with K-562 leukemia was above 100 µM each time. Further, the TGI with IGROV1 ovarian and in the assay on A549 NSCLC was above 100 µM each time.
